# According to paper PMC11229689, “In Vitro Selection of Macrocyclic L-α/D-α/β/γ-Hybrid Peptides Targeting IFN-γ/IFNGR1 Protein–Protein Interaction” (Journal of the American Chemical Society, 2024):
# Read-outs that look alike come from different tables or passages of the source. *1 amine or outer side, *2 acyl side, *3 side chain or, on linkers, in order; H or OH if unused. Where a SMILES comes first, the peptide text is derived from it. Bridges are numbered along the chain shown (N, C = ends). [ ]: non-standard residue; d: D form. Acbc(trans-1,3) = O=C([C@H]1C[C@H](N[*:1])C1)[*:2]; Acbc(cis-1,3) = O=C([C@H]1C[C@@H](N[*:1])C1)[*:2]; X1 = O=C([C@@H]1CCC[C@@H]1N[*:1])[*:2]; Orn = NCCC[C@H](N)C(=O)O
# Assays:
# [1] = biological target: T1, Fc-tagged human IFNGR1 (Homo sapiens, UniProt P15260); experiment: Binding kinetics and affinity to IFNGR1 by surface plasmon resonance (SPR); settings: SPR, 25 °C, 1:1 binding model; for Kd: read-out: KD; for kon: single-cycle kinetics, read-out: ka
# T1 construct: purchased ACROBiosystems
# T1 sequence (P15260 18-489): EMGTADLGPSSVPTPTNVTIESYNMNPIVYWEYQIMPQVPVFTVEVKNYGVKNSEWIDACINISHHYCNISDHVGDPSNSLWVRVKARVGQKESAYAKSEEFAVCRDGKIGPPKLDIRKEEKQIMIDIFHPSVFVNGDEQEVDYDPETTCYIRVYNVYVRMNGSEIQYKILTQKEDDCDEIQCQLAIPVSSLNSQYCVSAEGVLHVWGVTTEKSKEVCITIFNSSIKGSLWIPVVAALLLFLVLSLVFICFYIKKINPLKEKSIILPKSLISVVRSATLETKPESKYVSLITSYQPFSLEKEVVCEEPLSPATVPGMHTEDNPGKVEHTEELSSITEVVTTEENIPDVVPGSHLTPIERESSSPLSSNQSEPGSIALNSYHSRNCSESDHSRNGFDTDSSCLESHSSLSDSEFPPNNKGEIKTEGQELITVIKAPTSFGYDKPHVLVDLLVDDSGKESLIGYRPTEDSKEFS
# Method: (§1) Binding affinities of IA1 and IA2 against IFNGR1 were evaluated by surface plasmon resonance (SPR) (Table 1 and SI Figure S6A). […] To investigate the contribution of the N-terminal [yVPβ^1RR] motif and β^1 residue in IA1, three scrambled peptides IA1s1–3 and a variant IA1β^14A were synthesized and evaluated. […] We next evaluated inhibitory activities of IA1 and IA2 against the ligand–receptor PPI between IFN-γ and IFNGR1 using AlphaLISA (Table 1 and SI Figure S7).[37] […] We also determined the serum half-lives of IA1 and IA2, considering peptidase resistance as an important factor for therapeutic peptides.[24] A sample peptide and a peptidase-resistant internal standard peptide were coincubated in human serum at 37 °C, and the relative amount of the remaining sample peptide was estimated by LC/MS. […]
# Evaluation of binding affinity of peptides by surface plasmon resonance The binding affinities of selected peptides and IFNGR1 were analyzed by surface plasmon resonance (SPR) using a Biacore T200 instrument (Cytiva) at 25 °C with the following running buffer: 10 mM Tris-HCl (pH 8.0), 150 mM NaCl, 0.05% (v/v) Tween 20 , and 0.1% (v/v) DMSO. Fc-tagged IFNGR1 was immobilized on a series S sensor chip protein G (Cytiva) to a surface density of 1,200–1,600 response units following the immobilization protocols provided by Cytiva. The kinetic constants were determined by a single-cycle kinetics method by the injection of five different concentrations (twofold dilution series) of each peptide at a flow rate of 30 μL/min. The resulting sensorgrams were fitted to the standard 1:1 interaction model and analyzed using Biacore evaluation software. […]
# [2] = biological target: T2, IFN-γ/IFNGR1 protein–protein interaction (Homo sapiens, UniProt P15260); experiment: IFNGR1 inhibition assay using AlphaLISA; format: biochemical; settings: four-parameter dose–response fit, n = 3
# T2 construct: purchased ACROBiosystems
# T2 sequence (P15260 18-245 limits assumed): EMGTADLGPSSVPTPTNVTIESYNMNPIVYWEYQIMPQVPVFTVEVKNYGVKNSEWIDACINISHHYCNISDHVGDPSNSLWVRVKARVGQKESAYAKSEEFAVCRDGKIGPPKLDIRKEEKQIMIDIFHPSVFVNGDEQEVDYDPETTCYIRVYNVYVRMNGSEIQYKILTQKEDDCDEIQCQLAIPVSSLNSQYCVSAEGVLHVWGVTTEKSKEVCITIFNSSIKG
# Method: IFNGR1 inhibition assay using AlphaLISA
# The inhibitory activity of peptides against IFN-γ/IFNGR1 protein–protein interaction (PPI) was determined by AlphaLISA.5 Peptides, proteins, and beads were diluted in AlphaLISA immunoassay buffer (PerkinElmer, AL000C). 3.6 μL of 5 nM Fc-tagged IFNGR1 and 3.6 μL of synthetic peptides were mixed in AlphaPlate-384 Shallow Well (PerkinElmer) and preincubated at 25 °C for 10 min. 3.6 μL of 15 nM biotin-tagged IFN-γ was then added to the mix and incubated at 25 °C for 20 min. 3.6 μL each human IgG acceptor beads (PerkinElmer) and streptavidin donor beads (PerkinElmer) were added to the above mix and incubated at 25 °C for 30 min in dark place. Emission at 615 nm was measured […]
# by EnSpire Multimode Plate Reader (PerkinElmer). The fraction of bound IFN-γ/IFNGR1 was calculated by the intensity of emission in the presence of peptide divided by that in the absence of […]
# peptide. […]
# Puromycin. Normocin, Blasticidin, Zeocin, and Puromycin were excluded when conducting the experiments. To evaluate the cellular activity of peptides, peptide mixtures were added to 50,000 cells/well in a flat-bottom 96-well plate and pre-incubated for 30 min at 37 °C before stimulation.
# Subsequently, 1 ng/mL of recombinant IFN-γ (InvivoGen) was added to each well in a final reaction volume of 200 μL, followed by incubation for 20 h at 37 °C. 20 μL of supernatants from the induced cells was added to 180 μL Q U A N T I-Blue TM solution (InvivoGen). After further incubation for 3 h at 37 °C, the expression levels of the secreted embryonic alkaline phosphatase (SEAP) were determined by reading the O.D. at 650 nm on a Tecan M1000 PRO microplate reader (Tecan Group) and normalized to the non-treated well. IC50 value was analyzed by a normalized dose-response curve fitting by using GraphPad Prism 9.
# HEK-DualTM IFN-γ cells were used for the cell viability assay. 10,000 cells/well were added to each well in a flat-bottom 96-well plate. After 24 h, peptide mixtures were added to each well in a final volume of 100 μL. After further incubation for 24 h, 10 μL CCK-8 reagent (Dojindo) was added to […]
# [3] = Serum stability assay (LC/MS); format: in vitro ADME, human; settings: for half-life: human
# Method: as §1
# 10–200 μM synthetic peptide and 5 μM serum-resistant internal standard peptide consisting only of D-amino acids (NH2-PEG5-wstndwstnd-PEG5-CONH2)3 were mixed and incubated in human serum (Cosmo Bio, 12181201) at 37 °C for up to 120 h. At each time point, 4 μL of the mixture was removed and quenched by adding 12 μl methanol. Following centrifugation (15,000 g, 4 °C, 5 min), 10 μL of the supernatant was mixed with 40 μl of 1% (v/v) TFA. Following centrifugation (15,000 g, 4 °C, 5 min), the supernatant was collected for LC/MS analysis, which used a reverse-phase column (ACQUITY UPLC BEH C18, 1.7 μm, 2.1 × 150 mm; Waters) and a Xevo G2-XS QTof system (Waters) with a linear gradient from 1% B to 61% B. Buffer A was water with 0.1% (v/v) formic acid; buffer B was acetonitrile with 0.1% (v/v) formic acid. The percentages of remaining peptides were determined by the peak area integration of the chromatograms. For tandem mass spectrometry, MS/MS spectra were acquired with a 0.2 s scan time, with 10−30 eV collision energy. The obtained LC/MS data was analyzed using MassLynx 4.1 (Waters). […]
# [4] = human serum, 37 °C, LC/MS, relative to internal standard peptide, n = 3
# [5] = human serum, 37 °C, LC/MS, relative to internal standard peptide, n = 3, read-out: half-life in human serum (t1/2) (converted)
Structure (SMILES),Kd [1] [nM],kon [1] [M⁻¹ s⁻¹],IC50 [2] [nM],"half-life in human serum (t1/2) [3, 4] [h]","half-life [3, 5] [h]","half-life ([3]; serum, half-life in human serum (t1/2)) [h]"
"CC(C)[C@@H]1NC(=O)[C@@H](Cc2ccc(O)cc2)NC(=O)CSC[C@H](C(N)=O)NC(=O)[C@H](CCCN)NC(=O)[C@H](CO)NC(=O)[C@H](CCCN)NC(=O)[C@H](Cc2c[nH]cn2)NC(=O)CNC(=O)[C@H]2C[C@H](C2)NC(=O)[C@H](Cc2c[nH]cn2)NC(=O)[C@H](CC(N)=O)NC(=O)[C@H](CCCNC(=N)N)NC(=O)[C@H](CCCNC(=N)N)NC(=O)[C@@H]2CCC[C@@H]2NC(=O)[C@H](C)NC1=O [IB1Orn, ^AcyVAβ^1RRNHγ^1GHOSOc-NH2] ({CH2CO}-[dY]VA[X1]RRNH[Acbc(cis-1,3)]GH[Orn]S[Orn][dC]-NH2; thioether N-15)",11 ± 3,1.4e+06 ± 900000,17 ± 3,,,33 ± 1
"CC(C)[C@@H]1NC(=O)[C@@H](Cc2ccc(O)cc2)NC(=O)CSC[C@H](C(N)=O)NC(=O)[C@H](CCCNC(=N)N)NC(=O)[C@H](CO)NC(=O)[C@H](CCCNC(=N)N)NC(=O)[C@H](Cc2c[nH]cn2)NC(=O)CNC(=O)[C@H](C)NC(=O)[C@H](Cc2c[nH]cn2)NC(=O)[C@H](CC(N)=O)NC(=O)[C@H](CCCNC(=N)N)NC(=O)[C@H](CCCNC(=N)N)NC(=O)[C@@H]2CCC[C@@H]2NC(=O)[C@H](C)NC1=O [IB1γ^19A, ^AcyVAβ^1RRNHA GHRSRc-NH2] ({CH2CO}-[dY]VA[X1]RRNHAGHRSR[dC]-NH2; thioether N-15)",9.5 ± 4,110000 ± 20000,11 ± 4,,0.17 ± 0.01,
"CC(C)[C@@H]1NC(=O)[C@@H](Cc2ccc(O)cc2)NC(=O)CSC[C@H](C(N)=O)NC(=O)[C@H](CC(N)=O)NC(=O)[C@H](Cc2c[nH]cn2)NC(=O)[C@H](CCCNC(=N)N)NC(=O)[C@H](C)NC(=O)[C@H]([C@@H](C)O)NC(=O)[C@H](Cc2c[nH]cn2)NC(=O)[C@@H]2CCCN2C(=O)[C@H](CO)NC(=O)[C@H](CCCNC(=N)N)NC(=O)[C@H](CCCNC(=N)N)NC(=O)[C@@H]2CCC[C@@H]2NC(=O)[C@@H]2CCCN2C1=O [IB5γ^211A, ^AcyVPβ^1RRSPHTA RHNc-NH2] ({CH2CO}-[dY]VP[X1]RRSPHTARHN[dC]-NH2; thioether N-15)",28 ± 6,92000 ± 27000,14 ± 1,,1.8 ± 0.6,

# Second part, the compound after the results:
Kd [1] [nM],kon [1] [M⁻¹ s⁻¹],IC50 [2] [nM],"half-life in human serum (t1/2) [3, 4] [h]","half-life [3, 5] [h]","half-life ([3]; serum, half-life in human serum (t1/2)) [h]",Structure (SMILES)
22 ± 11,160000 ± 190000,47 ± 15,1.1 ± 0.0,< 1.3,,"CC(C)[C@@H]1NC(=O)[C@@H](Cc2ccc(O)cc2)NC(=O)CSC[C@H](C(N)=O)NC(=O)[C@H](CC(N)=O)NC(=O)[C@H]2C[C@@H](C2)NC(=O)[C@H](CCCNC(=N)N)NC(=O)[C@@H]2CCCN2C(=O)[C@H]([C@@H](C)O)NC(=O)[C@H](CCCNC(=N)N)NC(=O)[C@H](CCCNC(=N)N)NC(=O)[C@H](CO)NC(=O)[C@H](CCCNC(=N)N)NC(=O)[C@H](CCCNC(=N)N)NC(=O)[C@@H]2CCC[C@@H]2NC(=O)[C@@H]2CCCN2C1=O [IB4, ^AcyVPβ^1RRSRRTPRγ^2Nc-NH2] ({CH2CO}-[dY]VP[X1]RRSRRTPR[Acbc(trans-1,3)]N[dC]-NH2; thioether N-15)"
31 ± 8,200000 ± 90000,79 ± 11,1.3 ± 0.1,< 1.3,,"CC(C)[C@@H]1NC(=O)[C@@H](Cc2ccc(O)cc2)NC(=O)CSC[C@H](C(N)=O)NC(=O)[C@H](C)NC(=O)[C@H](Cc2c[nH]cn2)NC(=O)[C@H](CCCNC(=N)N)NC(=O)[C@H](CCCNC(=N)N)NC(=O)CNC(=O)[C@H]2C[C@H](C2)NC(=O)[C@H](Cc2c[nH]cn2)NC(=O)[C@H](CC(N)=O)NC(=O)[C@H](CCCNC(=N)N)NC(=O)[C@H](CCCNC(=N)N)NC(=O)[C@@H]2CCC[C@@H]2NC(=O)[C@H](C)NC1=O [IB2, ^AcyVAβ^1RRNHγ^1GRRHAc-NH2] ({CH2CO}-[dY]VA[X1]RRNH[Acbc(cis-1,3)]GRRHA[dC]-NH2; thioether N-15)"
150 ± 40,120000 ± 50000,330 ± 20,,> 2.6,,"CC(C)[C@@H]1NC(=O)[C@@H](Cc2ccc(O)cc2)NC(=O)CSC[C@H](C(N)=O)NC(=O)[C@H](CC(N)=O)NC(=O)[C@H](CO)NC(=O)[C@H](CCCNC(=N)N)NC(=O)[C@H](CO)NC(=O)[C@H]2C[C@@H](C2)NC(=O)[C@H](CC(N)=O)NC(=O)[C@H]([C@@H](C)O)NC(=O)[C@H](Cc2c[nH]cn2)NC(=O)[C@H](CCCNC(=N)N)NC(=O)[C@H](CCCNC(=N)N)NC(=O)[C@@H]2CCC[C@@H]2NC(=O)[C@@H]2CCCN2C1=O [IA2, ^AcyVPβ^1RRHTNγ^2SRSNc-NH2] ({CH2CO}-[dY]VP[X1]RRHTN[Acbc(trans-1,3)]SRSN[dC]-NH2; thioether N-15)"
